Values joined by “and” are separate entries in the source; they are usually repeats but may differ in a detail not shown here. Equal entries are not always repeated.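 The compound was tested at five concentrations on cells cultured in 96-well plates, with a 48-hour exposure period. GI50 = concentration required for 50% inhibition of growth. TGI marks complete inhibition of growth.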
Tests used:
Assay in all cases: inhibition of tumour cell growth, NCI panel, 48 h
EKVX NSCLC = system: EKVX NSCLC
HCC-2998 colon = system: HCC-2998 colon
HL-60(TB) leukemia = system: HL-60(TB) leukemia
HOP-92 NSCLC = system: HOP-92 NSCLC
NCI-H522 lung = system: NCI-H522 lung
OVCAR-8 ovarian = system: OVCAR-8 ovarian
SF-539 CNS = system: SF-539 CNS
SNB-19 CNS = system: SNB-19 CNS
UACC-62 melanoma = system: UACC-62 melanoma
NCI/ADR-RES ovarian = system: NCI/ADR-RES ovarian

SMILES | TGI (EKVX NSCLC) | TGI (HCC-2998 colon) | TGI (HL-60(TB) leukemia) | TGI (HOP-92 NSCLC) | TGI (NCI-H522 lung) | TGI (OVCAR-8 ovarian) | TGI (SF-539 CNS) | TGI (SNB-19 CNS) | TGI (UACC-62 melanoma) | GI50 (EKVX NSCLC) | GI50 (HCC-2998 colon) | GI50 (NCI-H522 lung) | GI50 (NCI/ADR-RES ovarian) | TGI (NCI/ADR-RES ovarian) | GI50 (SF-539 CNS) | GI50 (SNB-19 CNS) | GI50 (UACC-62 melanoma) | GI50 (HL-60(TB) leukemia) | GI50 (HOP-92 NSCLC) | GI50 (OVCAR-8 ovarian)
CC1=Nc2ccccc2C12C(c1ccccc1)C(c1ccccc1)C(=O)N1c3ccccc3CC12 (stereo unspecified) | > 100 µM | > 100 µM | > 100 µM | > 100 µM | > 100 µM | > 100 µM | > 100 µM | > 100 µM | > 100 µM | – | – | – | – | – | – | – | – | – | – | –
COC(=O)C1=C(C)N(NC(N)=O)C(C)(O)C12CCOC2=O (stereo unspecified) | > 100 µM | 45.1 µM | > 100 µM | > 100 µM | > 100 µM | > 100 µM | > 100 µM | > 100 µM | – | – | – | – | – | – | – | – | – | – | – | –
Cc1ccc(NC(=O)c2cc3ccccc3cc2O)c(C)c1.Cc1ccc(NC(=O)c2cc3ccccc3cc2[O-])c(C)c1.[Ni+2] | 8.99 µM | 6.74 µM | – | – | 10.5 µM | – | 53.2 µM | 20.2 µM | 21.2 µM | 2.57 µM | 2.63 µM | 3080 nM | 2450 nM | 8.6 µM | 4.75 µM | 3.72 µM | 4.91 µM | – | – | –
CCCN1C(=O)CNC(=O)c2[nH]cnc21 | > 100 µM | > 100 µM | > 100 µM | > 100 µM | > 100 µM | > 100 µM | > 100 µM | > 100 µM | > 100 µM | – | – | – | – | – | – | – | – | – | – | –
Cc1ccc(N2C(=O)C(Cl)=C(Cl)C2=O)cc1 | 39.2 µM | > 100 µM | – | 32.4 µM | 28.6 µM | – | 64.2 µM | > 100 µM | – | – | – | – | – | – | – | – | – | – | – | –
CCOCCOC[C@H]1CCCN(c2ccnc3sc(C(N)=O)c(N)c23)C1 | > 100 µM | > 100 µM | > 100 µM | > 100 µM | > 100 µM | > 100 µM | > 100 µM | > 100 µM | > 100 µM | 27.9 µM | > 100 µM | 10300 nM | – | – | > 100 µM | > 100 µM | 6.51 µM | 48.7 µM | 44.3 µM | 25.1 µM
CC(C)c1cccc(C(C)C)c1NC(=O)CCC(=O)NN | > 100 µM | > 100 µM | > 100 µM | > 100 µM | – | > 100 µM | > 100 µM | > 100 µM | > 100 µM | – | – | – | – | – | – | – | – | – | – | –
C/C=C/C1=CN2C(=O)c3cc(OC4OC(C)C(NC)C(C)(O)C4O)c(C)c(O)c3N=C[C@@H]2C1 (stereo partly specified) | – | – | 0.34 µM | – | 0.302 µM | > 100 µM | – | – | – | – | – | 119 nM | – | 4.71 µM | 0.0743 µM and < 0.01 µM | – | 0.0918 µM and < 0.01 µM | 0.0603 µM | – | –
O=C(Cc1ccccc1)NS(=O)(=O)c1ccccc1 | > 100 µM | > 100 µM | > 100 µM | > 100 µM | > 100 µM | > 100 µM | > 100 µM | > 100 µM | > 100 µM | – | – | – | – | – | – | – | – | – | – | –
Nc1ncnc2c1ncn2C1OC(COC2C(CO)OC(OC(C(=O)O)C(O)C(OP(=O)(O)O)C(O)C(=O)O)C(O)C2O)C(O)C1O (stereo unspecified) | > 100 µM | > 100 µM | > 100 µM | – | > 100 µM | > 100 µM | > 100 µM | > 100 µM | – | – | – | – | – | – | – | – | – | – | – | –
O=[N+]([O-])c1cc2c(c([N+](=O)[O-])c1)Nc1ccccc1O2 | 51.7 µM | > 100 µM | – | – | 31.4 µM | > 100 µM | 74.6 µM | > 100 µM | > 100 µM | 4.4 µM | 7.75 µM | 2780 nM | 3410 nM | 55.4 µM | 13.3 µM | 6.33 µM | 5.11 µM | – | – | 10 µM
CCCCCCCCCCCCC(CCCCCCCCCCCC)OP(=O)(O)O | > 100 µM | > 100 µM | > 100 µM | > 100 µM | > 100 µM | > 100 µM | > 100 µM | > 100 µM | > 100 µM | – | – | – | – | – | – | – | – | – | – | –
O=NN(CCCl)C(=O)N[C@H]1CCCC[C@@H]1Cl | > 100 µM | > 100 µM | 42.7 µM | > 100 µM | > 100 µM | > 100 µM | > 100 µM | > 100 µM | – | – | – | – | – | – | – | – | – | – | – | –
C#Cc1cc(CN(CC(=O)OC(C)(C)C)CC(=O)OC(C)(C)C)nc(CN(CC(=O)OC(C)(C)C)CC(=O)OC(C)(C)C)c1 | 49.3 µM | 33.9 µM | 9.72 µM | – | 4.22 µM | 31.6 µM | 32.9 µM | 15.1 µM | 36.5 µM | – | – | – | – | – | – | – | – | – | – | –
CCOC(=O)NC1CC2CCC1(OC)C=C2C (stereo unspecified) | > 100 µM | > 100 µM | > 100 µM | > 100 µM | > 100 µM | > 100 µM | > 100 µM | > 100 µM | > 100 µM | – | – | – | – | – | – | – | – | – | – | –
